Assays:
[1] = target: T1, Arachidonate 5-lipoxygenase-activating protein (Homo sapiens, UniProt P20292); assay: The compound was tested for the inhibition of binding of [125I]- L- 691,831 binding to 5-lipoxygenase activating protein (FLAP)
T1 sequence (P20292 whole entry): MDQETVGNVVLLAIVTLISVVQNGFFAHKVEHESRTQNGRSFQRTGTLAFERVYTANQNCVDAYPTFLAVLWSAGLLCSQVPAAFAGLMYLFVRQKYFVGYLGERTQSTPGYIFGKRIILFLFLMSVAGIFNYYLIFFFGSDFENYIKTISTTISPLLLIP

Homo sapiens [2] = species on record: Homo sapiens; assay: Leukotriene synthesis inhibition activity in the Human PMN assay; assay type: functional, organism-based
Homo sapiens [3] = species on record: Homo sapiens; assay: Leukotriene synthesis inhibition activity in the Human whole blood assay; assay type: functional, organism-based
[4] = target: T1, Arachidonate 5-lipoxygenase-activating protein; assay: The compound was tested for the inhibition of binding of [125I]- L- 691,831 binding to 5-lipoxygenase activating protein

Row | IC50 [1] [nM] | IC50 (Homo sapiens [2]; Homo sapiens) [nM] | IC50 (Homo sapiens [3]) [nM] | IC50 (Homo sapiens [2]) [nM] | SMILES | other results
1 | 4 |  |  |  | O=C(O)CSC(CCCc1ccccc1)(CCc1ccccc1)c1ccc(OCc2ccc3ccccc3n2)cc1 (stereo not given) | 
2 |  | 30 |  |  | c1ccc(COCC(OCc2ccccc2)c2ccc(OCc3ccc4ccccc4n3)cc2)cc1 (stereo not given) | 
3 |  |  |  | 10 | O=C(O)CSC(CCCc1ccc(Cl)cc1)c1ccc(OCc2ccc3ccccc3n2)cc1 (single isomer, unassigned; (-)) | 
4 | 122 |  | > 22000 | 20 | O=C(O)CSC(CCCc1ccc(Cl)cc1)c1ccc(OCc2ccc3ccccc3n2)cc1 (stereo in doubt; 1) | 

More lines, now with the values behind:

Row | SMILES | IC50 [1] [nM] | IC50 (Homo sapiens [2]; Homo sapiens) [nM] | IC50 (Homo sapiens [3]) [nM] | IC50 (Homo sapiens [2]) [nM] | other results
5 | CC(C)c1ccc2c(c1)c(SC(C)(C)C)c(CC(C)(C)C(=O)O)n2Cc1ccc(Cl)cc1 | 23 | 3 | 2100 |  | 
6 | Cc1c(CC(C)(C)C(=O)O)n(Cc2ccc(Cl)cc2)c2ccc(OCc3ccc4ccccc4n3)cc12 |  | 3 |  |  | 
7 | COc1ccc2c(c1)c(C)c(CC(C)(C)C(=O)O)n2Cc1ccc(Cl)cc1 |  | 870 |  |  | 
8 | O=C(O)CSC(CCCc1ccc(Cl)cc1)c1ccc(OCc2ccc3ccccc3n2)cc1 (single isomer, unassigned; (+)) |  |  |  | 5 | 
9 | CC(C)(C)Sc1c(CC(C)(C)C(=O)O)n(Cc2ccc(Cl)cc2)c2ccc(OCc3ccc4ccccc4n3)cc12 [QUIFLAPON] |  | 3 | 500 |  | IC50 [4]: 2 nM
